Test results from PubChem BioAssay (NCI).
Values joined by “and” are separate entries in the source; they are usually repeats but may differ in a detail not shown here. Identical values can stand only once.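 Interpolation was linear, between the two tested concentrations surrounding the appropriate level; five concentrations were tested over 48 hours in 96-well plates. Abbreviation: GI50, concentration required for 50% inhibition of growth. TGI: total growth inhibition.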

Legend:
Assay in all cases: NCI-60 cell line screen, 48 h
[1] = system: LOX IMVI melanoma
[2] = system: UACC-257 melanoma
[3] = system: IGROV1 ovarian
[4] = system: COLO 205 colon
[5] = system: SK-OV-3 ovarian
[6] = system: A498 renal
[7] = system: OVCAR-4 ovarian
[8] = system: CAKI-1 renal
[9] = system: KM12 colon
[10] = system: NCI-H522 lung

COc1ccc(-c2nn(-c3cccc(Cl)c3)cc2-c2c(C#N)c(=O)n3[nH]c(-c4ccc(C)cc4)nc3c2C#N)cc1
GI50 [1]: 2.44 µM | TGI [1]: 17.1 µM | GI50 [2]: 6.68 µM | TGI [2]: 16.7 µM | GI50 [3]: 3.51 µM | TGI [3]: 11.3 µM | GI50 [4]: 2.32 µM | TGI [4]: 8.15 µM | GI50 [5]: 3.3 µM | TGI [5]: 9.54 µM | GI50 [6]: 0.575 µM | TGI [6]: 7.63 µM | GI50 [7]: 1.09 µM | TGI [7]: 4 µM | GI50 [8]: 2.46 µM | TGI [8]: 10.4 µM | GI50 [9]: 3.39 µM | TGI [9]: 24.2 µM | GI50 [10]: 1.45 µM | TGI [10]: 4.89 µM

CCC(=O)C(C)C(=O)C(=O)C(=O)OC (configuration not stated)
TGI [1]: > 100 µM | TGI [2]: > 100 µM | TGI [3]: > 100 µM | TGI [4]: > 100 µM | TGI [5]: > 100 µM | TGI [6]: > 100 µM | TGI [7]: > 100 µM | TGI [8]: > 100 µM | TGI [9]: > 100 µM | TGI [10]: > 100 µM

Cc1cc([N+](=O)[O-])ccc1NS(=O)(=O)c1cc(Cl)ccc1Cl
GI50 [1]: 3.44 µM | TGI [1]: 13 µM | GI50 [2]: 2.02 µM | TGI [2]: 7.55 µM | GI50 [3]: 4.61 µM | TGI [3]: > 100 µM | GI50 [4]: 3.23 µM | TGI [4]: 12.3 µM | GI50 [5]: 2.51 µM | TGI [5]: 8.63 µM | GI50 [6]: 1.43 µM | TGI [6]: 6.24 µM | GI50 [7]: 2.42 µM | TGI [7]: > 30.8 µM | GI50 [8]: 2.54 µM | TGI [8]: > 28.4 µM | GI50 [9]: 4.04 µM | TGI [9]: 34.5 µM | GI50 [10]: 2.44 µM | TGI [10]: 8.68 µM

CC(C)(O)[C@@H]1CC[C@@]2(C)CCC[C@H](O)[C@H]2C1
TGI [1]: > 100 µM | TGI [2]: > 100 µM | TGI [3]: > 100 µM | TGI [4]: > 100 µM | TGI [5]: > 100 µM | TGI [6]: > 100 µM | TGI [7]: > 100 µM | TGI [8]: > 100 µM | TGI [9]: > 100 µM | TGI [10]: > 100 µM

O=c1oc(-c2ccccc2)cc2cccc(O)c12
GI50 [1]: 29.7 µM | TGI [1]: > 100 µM | GI50 [2]: > 71.9 µM | TGI [2]: > 100 µM | GI50 [3]: 23 µM | TGI [3]: > 100 µM | GI50 [4]: > 100 µM | TGI [4]: > 100 µM | GI50 [5]: 26.8 µM | TGI [5]: 68.6 µM | GI50 [6]: 21 µM | TGI [6]: 48 µM | GI50 [7]: > 100 µM | TGI [7]: > 100 µM | GI50 [8]: 37.3 µM | TGI [8]: > 81.7 µM | GI50 [9]: 20.8 µM | TGI [9]: > 69.3 µM | GI50 [10]: 49.9 µM | TGI [10]: > 100 µM

CCn1c2ccc(C(=O)CCCN(C)C)cc2c2cc(C(=O)CCCN(C)C)ccc21
TGI [1]: 4.76 µM | TGI [2]: 14 µM | TGI [3]: 4.23 µM | TGI [4]: 6.92 µM | TGI [5]: 22.1 µM | TGI [6]: 4.51 µM | TGI [7]: 4.17 µM | TGI [8]: 7.42 µM | TGI [9]: 11.2 µM | TGI [10]: 8.68 µM

O=C1NC(=O)C(c2ccc(Cl)cc2)=C1Nc1ccc(Cl)c(C(=O)O)c1
GI50 [1]: > 25 µM | TGI [1]: > 25 µM | GI50 [2]: > 25 µM | TGI [2]: > 25 µM | GI50 [3]: > 25 µM | TGI [3]: > 25 µM | GI50 [4]: > 25 µM | TGI [4]: > 25 µM | GI50 [5]: > 25 µM | TGI [5]: > 25 µM | GI50 [6]: > 25 µM | TGI [6]: > 25 µM | GI50 [7]: > 25 µM | TGI [7]: > 25 µM | GI50 [8]: > 25 µM | TGI [8]: > 25 µM | GI50 [9]: > 25 µM | TGI [9]: > 25 µM | GI50 [10]: > 25 µM | TGI [10]: > 25 µM

O=C1c2cc(-c3ccccc3)ccc2-c2c1c1ccc([N+](=O)[O-])cc1c(=O)n2CCCBr
GI50 [1]: > 50 µM | TGI [1]: > 50 µM | GI50 [2]: > 50 µM | TGI [2]: > 50 µM | GI50 [3]: > 50 µM | TGI [3]: > 50 µM | GI50 [4]: > 50 µM | TGI [4]: > 50 µM | GI50 [5]: 33.1 µM | TGI [5]: > 50 µM | GI50 [6]: 32.5 µM | TGI [6]: > 50 µM | GI50 [7]: > 50 µM | TGI [7]: > 50 µM | GI50 [8]: > 50 µM | TGI [8]: > 50 µM | GI50 [9]: > 50 µM | TGI [9]: > 50 µM | GI50 [10]: > 50 µM | TGI [10]: > 50 µM

CC(=O)OC(C)(C)/C=C/C(=O)[C@](C)(O)[C@H]1[C@H](O)C[C@@]2(C)[C@@H]3CC=C4[C@@H](C[C@H](O)C(=O)C4(C)C)[C@]3(CO)C(=O)C[C@]12C
GI50 [1]: 0.0999 µM | TGI [1]: 0.492 µM and 0.455 µM | GI50 [2]: 0.284 µM | TGI [2]: 0.943 µM and 6.36 µM | GI50 [3]: 0.463 µM | TGI [3]: 0.907 µM and 2.89 µM | GI50 [4]: 0.159 µM | GI50 [5]: 0.333 µM | GI50 [6]: 0.0791 µM | TGI [6]: 0.431 µM and 0.213 µM | GI50 [7]: 0.295 µM | TGI [7]: 0.835 µM | TGI [8]: 0.564 µM and 0.66 µM | GI50 [9]: 0.703 µM | TGI [9]: 32.7 µM | GI50 [10]: 0.112 µM | TGI [10]: 0.855 µM and 0.675 µM

CC1=C(C(=O)Nc2ccc([N+](=O)[O-])cc2)C(c2ccccc2O)C(C(=O)Nc2ccc([N+](=O)[O-])cc2)=C(C)N1
TGI [1]: 34.5 µM | TGI [2]: 51.1 µM | TGI [3]: > 100 µM | TGI [4]: 40.8 µM | TGI [5]: 94.7 µM | TGI [6]: 66.4 µM | TGI [7]: 73.8 µM | TGI [8]: 62.1 µM | TGI [9]: 55 µM | TGI [10]: 35.9 µM

COc1ccc2nc3cc([N+](=O)[O-])ccc3c(NCCCN(CCO)CCO)c2c1
GI50 [1]: 2.42 µM | TGI [1]: 6.32 µM | GI50 [2]: 2.82 µM | TGI [2]: 7.55 µM | GI50 [3]: 2.51 µM | TGI [3]: 7.13 µM | GI50 [4]: 2.64 µM | TGI [4]: 9.12 µM | GI50 [5]: 12.7 µM | TGI [5]: 17.2 µM | GI50 [6]: 18 µM | TGI [6]: 38.6 µM | GI50 [7]: 3.81 µM | TGI [7]: 11.4 µM | GI50 [8]: 10.9 µM | TGI [8]: 22.8 µM | GI50 [9]: 2.64 µM | TGI [9]: 9.97 µM | GI50 [10]: 1.36 µM | TGI [10]: 2.86 µM
